# Reference: PubChem BioAssay (NCI)
#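 Step 1: Grow cells in 96-well plates. Step 2: Expose to compound for 48 hours at 5 concentrations. Step 3: Interpolate endpoints linearly; if unreached, use highest concentration. TGI is the concentration that stops growth completely.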
# Legend:
# Test in all cases: NCI tumour cell line growth inhibition, 48 h
# [1] = tested on: 786-0 renal
# [2] = tested on: A549 NSCLC
# [3] = tested on: ACHN renal
# [4] = tested on: BT-549 breast
# [5] = tested on: CAKI-1 renal
# [6] = tested on: CCRF-CEM leukemia
# [7] = tested on: COLO 205 colon
# [8] = tested on: DU-145 prostate
# [9] = tested on: EKVX NSCLC
# [10] = tested on: HCC-2998 colon
# [11] = tested on: HCT-116 colon
# [12] = tested on: HCT-15 colon
# [13] = tested on: HL-60(TB) leukemia
# [14] = tested on: HOP-62 NSCLC
# [15] = tested on: HS 578T breast
# [16] = tested on: HT29 colon
# [17] = tested on: IGROV1 ovarian
# [18] = tested on: K-562 leukemia
# [19] = tested on: KM12 colon
# [20] = tested on: M14 melanoma
# [21] = tested on: MALME-3M melanoma
# [22] = tested on: MCF7 breast
# [23] = tested on: MDA-MB-231 breast
# [24] = tested on: MDA-N
# [25] = tested on: MOLT-4 leukemia
# [26] = tested on: NCI-H226 lung
# [27] = tested on: NCI-H23 lung
# [28] = tested on: NCI-H460 lung
# [29] = tested on: NCI-H522 lung
# [30] = tested on: NCI/ADR-RES ovarian
# [31] = tested on: OVCAR-3 ovarian
# [32] = tested on: OVCAR-4 ovarian
# [33] = tested on: OVCAR-5 ovarian
# [34] = tested on: OVCAR-8 ovarian
# [35] = tested on: PC-3 prostate
# [36] = tested on: SF-268 CNS
# [37] = tested on: SF-295 CNS
# [38] = tested on: SF-539 CNS
# [39] = tested on: SK-MEL-28 melanoma
# [40] = tested on: SK-MEL-5 melanoma
# [41] = tested on: SK-OV-3 ovarian
# [42] = tested on: SN12C renal
# [43] = tested on: SNB-19 CNS
# [44] = tested on: SNB-75 CNS
# [45] = tested on: SR leukemia
# [46] = tested on: SW-620 colon
# [47] = tested on: T-47D breast
# [48] = tested on: TK-10 renal
# [49] = tested on: U251 CNS
# [50] = tested on: UACC-257 melanoma
# [51] = tested on: UACC-62 melanoma
# [52] = tested on: UO-31 renal
# [53] = tested on: LOX IMVI melanoma
# [54] = tested on: MDA-MB-435
# [55] = tested on: RPMI-8226 leukemia
# [56] = tested on: RXF 393 renal
# [57] = tested on: SK-MEL-2 melanoma
smiles,measurement,setting,value
OCC(O)C(Cl)CCl (configuration not stated),TGI,[1],> 100 µM
same,TGI,[2],> 100 µM
same,TGI,[3],> 100 µM
same,TGI,[4],> 100 µM
same,TGI,[5],> 100 µM
same,TGI,[6],> 100 µM
same,TGI,[7],> 100 µM
same,TGI,[8],> 100 µM
same,TGI,[9],> 100 µM
same,TGI,[10],> 100 µM
same,TGI,[11],> 100 µM
same,TGI,[12],> 100 µM
same,TGI,[13],> 100 µM
same,TGI,[14],> 100 µM
same,TGI,[15],> 100 µM
same,TGI,[16],> 100 µM
same,TGI,[17],> 100 µM
same,TGI,[18],> 100 µM
same,TGI,[19],> 100 µM
same,TGI,[20],> 100 µM
same,TGI,[21],> 100 µM
same,TGI,[22],> 100 µM
same,TGI,[23],> 100 µM
same,TGI,[24],> 100 µM
same,TGI,[25],> 100 µM
same,TGI,[26],> 100 µM
same,TGI,[27],> 100 µM
same,TGI,[28],> 100 µM
same,TGI,[29],> 100 µM
same,TGI,[30],> 100 µM
same,TGI,[31],> 100 µM
same,TGI,[32],> 100 µM
same,TGI,[33],> 100 µM
same,TGI,[34],> 100 µM
same,TGI,[35],> 100 µM
same,TGI,[36],> 100 µM
same,TGI,[37],> 100 µM
same,TGI,[38],> 100 µM
same,TGI,[39],> 100 µM
same,TGI,[40],> 100 µM
same,TGI,[41],> 100 µM
same,TGI,[42],> 100 µM
same,TGI,[43],> 100 µM
same,TGI,[44],> 100 µM
same,TGI,[45],> 100 µM
same,TGI,[46],> 100 µM
same,TGI,[47],> 100 µM
same,TGI,[48],> 100 µM
same,TGI,[49],> 100 µM
same,TGI,[50],> 100 µM
same,TGI,[51],> 100 µM
same,TGI,[52],> 100 µM
Cc1ccc(/C=C/c2nnc(N/N=C/c3ccc4c(c3)OCO4)[nH]c2=O)cc1,TGI,[1],27.9 µM
same,TGI,[2],> 100 µM
same,TGI,[3],65.6 µM
same,TGI,[4],33.9 µM
same,TGI,[5],91.8 µM
same,TGI,[6],45.4 µM
same,TGI,[7],> 100 µM
same,TGI,[8],38.7 µM
same,TGI,[9],> 100 µM
same,TGI,[10],79.8 µM
same,TGI,[11],45.9 µM
same,TGI,[12],> 100 µM
same,TGI,[14],33.7 µM
same,TGI,[15],34.6 µM
same,TGI,[16],53.7 µM
same,TGI,[17],41.8 µM
same,TGI,[18],70.7 µM
same,TGI,[19],46.9 µM
same,TGI,[53],37.7 µM
same,TGI,[20],> 100 µM
same,TGI,[21],> 100 µM
same,TGI,[22],51.2 µM
same,TGI,[23],29.9 µM
same,TGI,[54],> 100 µM
same,TGI,[24],62.4 µM
same,TGI,[25],> 100 µM
same,TGI,[26],72.5 µM
same,TGI,[27],32.5 µM
same,TGI,[28],57.6 µM
same,TGI,[29],> 100 µM
same,TGI,[30],37.5 µM
same,TGI,[31],36.2 µM
same,TGI,[32],36.8 µM
same,TGI,[33],> 100 µM
same,TGI,[34],34.7 µM
same,TGI,[35],43.3 µM
same,TGI,[55],> 100 µM
same,TGI,[56],> 100 µM
same,TGI,[36],33.9 µM
same,TGI,[37],> 100 µM
same,TGI,[38],42.4 µM
same,TGI,[57],78.9 µM
same,TGI,[39],30.9 µM
same,TGI,[40],> 100 µM
same,TGI,[41],93.2 µM
same,TGI,[42],38.1 µM
same,TGI,[43],37.4 µM
same,TGI,[44],31.2 µM
same,TGI,[45],40.9 µM
same,TGI,[46],42.6 µM
same,TGI,[47],> 100 µM
same,TGI,[48],58.6 µM
same,TGI,[49],33.6 µM
same,TGI,[50],> 100 µM
same,TGI,[52],> 100 µM
